Reference: patent US20100261731A1, “Method for Treating a Disease, Disorder or Adverse Effect Caused by an Elevated Serum Concentration of an UGT1A1 Substrate” (Abbott Laboratories, priority 2009, published 2010)

Assays:
[1] = test system: UGT1A1; experiment: Hepatic 17α-ethinylestradiol glucuronidation activity in liver microsomes of treated rats
[2] = test system: 1-naphthol glucuronidation; experiment: Hepatic 1-naphthol glucuronidation activity in liver microsomes of treated rats
[3] = test system: UDP-glucuronosyltransferase 1 family, member 1; experiment: Rat liver microarray (Affymetrix Rat U34), UGT1A probe induction; format: in vivo, Sprague-Dawley rats; settings: 3-Day Studies
[4] = test system: 3-methylcholanthrene-inducible UDP-glucuronosyltransferase; experiment: as above; format: in vivo, Sprague-Dawley rats
[5] = test system: UDP glucuronosyltransferase, exon 1.; experiment: as above; format: in vivo, Sprague-Dawley rats
[6] = test system: UDP-glucuronosyltransferase 1A (UGT1A); experiment: Rat liver microarray, all UGT1A probe sets; format: in vivo, Sprague-Dawley rats; settings: dose levels of 100 mg/kg and higher, after 1 and 3 days of treatment
[7] = test system: bilirubin conjugation in human microsomes; settings: in vitro system of human microsomes; cited from earlier work
[8] = molecular target: T1, UGT1A1 isoform (Homo sapiens, UniProt P22309); settings: human cells transfected with the UGT1A1 isoform; cited from earlier work
T1 sequence (P22309 26-533): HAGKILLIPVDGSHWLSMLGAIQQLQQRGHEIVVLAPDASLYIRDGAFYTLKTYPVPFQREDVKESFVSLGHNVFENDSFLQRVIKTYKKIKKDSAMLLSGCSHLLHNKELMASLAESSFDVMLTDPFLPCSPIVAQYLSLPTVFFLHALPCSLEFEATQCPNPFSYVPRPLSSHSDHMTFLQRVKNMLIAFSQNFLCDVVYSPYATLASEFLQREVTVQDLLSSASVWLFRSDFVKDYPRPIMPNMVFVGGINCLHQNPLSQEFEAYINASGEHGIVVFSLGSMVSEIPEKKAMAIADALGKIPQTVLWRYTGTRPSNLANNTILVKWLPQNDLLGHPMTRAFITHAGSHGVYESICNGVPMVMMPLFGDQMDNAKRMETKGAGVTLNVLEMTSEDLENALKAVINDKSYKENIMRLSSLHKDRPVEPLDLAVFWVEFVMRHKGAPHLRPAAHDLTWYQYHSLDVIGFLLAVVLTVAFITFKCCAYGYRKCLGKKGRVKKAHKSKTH

[9] = subjects taking atazanavir, one study; cited from earlier work
[10] = test system: bilirubin-conjugating activity; settings: cited from earlier work
[11] = Ethinylestradiol pharmacokinetics alone and with ritonavir in healthy female volunteers; format: in vivo, human
Description: This was an open-label, single-center study in healthy female volunteers who had not received an oral contraceptive for a minimum of six months prior to study start. Subjects received the first dose of oral contraceptive containing 50 μg of ethinyl estradiol on Day 1. […] On Day 15, 300 mg q12h was administered, 400 mg q12h was given on Day 16, and 500 mg q12h was administered thereafter. […] Blood samples for ethinylestradiol concentrations were collected for 48 h after each of the oral contraceptive doses.
Twenty-seven subjects were enrolled in the study. […] Data from these four subjects were therefore excluded from summary statistics. The mean ±SD age of the 23 subjects who completed the study was 34±10 yrs (range 19 to 45 yrs), the mean ±SD weight was 67.3±10.9 kg (range 50.8 to 90.3 kg), and the mean ±SD height was 167±7 cm (range 155 to 180 cm). […]
Analysis of serum samples for determination of ethinyl estradiol was performed at Pharmaco LSR, Richmond, Va. Ethinylestradiol serum concentrations were determined using a gas chromatography/mass spectrometry (GC/MS) method. […] This method has been validated over 17α-ethinylestradiol concentrations ranging from 2.00 to 256 pg/mL for a 1.0 mL serum volume, with a minimum quantitation limit of 2.00 pg/mL.
Ethinylestradiol pharmacokinetic parameters were estimated following two single doses, on Day 1 and Day 29, using noncompartmental methods. The pharmacokinetic parameters were calculated using the intended sampling times; all samples were collected within 10% of intended sampling times. […] The area under the plasma concentration-time curve (AUC∞) was calculated as the sum of AUCt, the area up to the last measurable concentration computed using the linear trapezoidal rule, and the extrapolation to infinity, calculated as the quotient of the last measurable concentration (Ct) and the terminal elimination rate constant (β). The terminal elimination rate constant was calculated as the negative of the slope of the regression of the logarithms of the plasma concentrations vs. time, starting at 18 h post-dose. […]

[12] = 1-Day Studies, 50 mg/kg oral (second column)
[13] = 3-Day Studies, 100 mg/kg oral daily
[14] = 3-Day Studies, 125 mg/kg oral daily
[15] = serum ethinylestradiol, single 50 μg oral contraceptive dose, Mean ± SD, n = 23, alone Day 1, with ritonavir 500 mg q12h Day 29

CCC1(c2ccccc2)C(=O)NC(=O)NC1=O [Phenobarbitol]
17α-ethinylestradiol glucuronidation ([1]; Females, T3: phenobarbital 50 mg/kg intraperitoneal daily 4 days, 100 μM substrate): 91.0 ± 34.0 pmol/mg/min | 17α-ethinylestradiol glucuronidation ([1]; Females, T3: phenobarbital 50 mg/kg intraperitoneal daily 4 days, 250 μM substrate): 360.6 ± 88.1 pmol/mg/min | 17α-ethinylestradiol glucuronidation ([1]; Males, T3: phenobarbital 50 mg/kg intraperitoneal daily 4 days, 100 μM substrate): 45.1 ± 16.5 pmol/mg/min | 17α-ethinylestradiol glucuronidation ([1]; Males, T3: phenobarbital 50 mg/kg intraperitoneal daily 4 days, 250 μM substrate): 258.5 ± 98.5 pmol/mg/min | 1-naphthol glucuronidation ([2]; Females, T3: phenobarbital 50 mg/kg intraperitoneal daily 4 days, 50 μM substrate): 9.3 ± 0.4 nmol/mg/min | 1-naphthol glucuronidation ([2]; Females, T3: phenobarbital 50 mg/kg intraperitoneal daily 4 days, 1000 μM substrate): 46.4 ± 8.6 nmol/mg/min | 1-naphthol glucuronidation ([2]; Males, T3: phenobarbital 50 mg/kg intraperitoneal daily 4 days, 50 μM substrate): 15.4 ± 3.1 nmol/mg/min | 1-naphthol glucuronidation ([2]; Males, T3: phenobarbital 50 mg/kg intraperitoneal daily 4 days, 1000 μM substrate): 41.0 ± 5.0 nmol/mg/min

CC(C)c1nc(CN(C)C(=O)N[C@H](C(=O)N[C@@H](Cc2ccccc2)C[C@H](O)[C@H](Cc2ccccc2)NC(=O)OCc2cncs2)C(C)C)cs1 [Ritonavir]
Fold change ([3]; 50 mg/kg oral daily (first column)): 1.31 fold | Fold change ([3]; 50 mg/kg oral daily (second column)): 1.33 fold | Fold change ([4]; 1-Day Studies, 20 mg/kg oral (first column)): 1.83 fold | Fold change ([4]; 1-Day Studies, 20 mg/kg oral (second column)): 1.54 fold | Fold change ([4]; 1-Day Studies, 50 mg/kg oral (first column)): 1.63 fold | Fold change [4, 12]: 2.1 fold | Fold change ([4]; 3-Day Studies, 50 mg/kg oral daily (first column)): 1.54 fold | Fold change ([4]; 3-Day Studies, 50 mg/kg oral daily (second column)): 1.85 fold | Fold change ([4]; 3-Day Studies, 75 mg/kg oral daily): 1.97 fold | Fold change [4, 13]: 2.26 fold | Fold change [4, 14]: 2.25 fold | 17α-ethinylestradiol glucuronidation ([1]; Females, T1: ritonavir 15 mg/kg oral daily 14 days, 100 μM substrate): 54.5 ± 24.0 pmol/mg/min | 17α-ethinylestradiol glucuronidation ([1]; Females, T1: ritonavir 15 mg/kg oral daily 14 days, 250 μM substrate): 336.4 ± 75.8 pmol/mg/min | 17α-ethinylestradiol glucuronidation ([1]; Females, T2: ritonavir 50 mg/kg oral daily 14 days, 100 μM substrate): 146.5 ± 26.0 pmol/mg/min | 17α-ethinylestradiol glucuronidation ([1]; Females, T2: ritonavir 50 mg/kg oral daily 14 days, 250 μM substrate): 590.9 ± 101.2 pmol/mg/min | 17α-ethinylestradiol glucuronidation ([1]; Males, T1: ritonavir 15 mg/kg oral daily 14 days, 100 μM substrate): 58.8 ± 2.2 pmol/mg/min | 17α-ethinylestradiol glucuronidation ([1]; Males, T1: ritonavir 15 mg/kg oral daily 14 days, 250 μM substrate): 171.8 ± 38.1 pmol/mg/min | 17α-ethinylestradiol glucuronidation ([1]; Males, T2: ritonavir 50 mg/kg oral daily 14 days, 100 μM substrate): 34.0 ± 10.0 pmol/mg/min | 17α-ethinylestradiol glucuronidation ([1]; Males, T2: ritonavir 50 mg/kg oral daily 14 days, 250 μM substrate): 290.1 ± 45.6 pmol/mg/min | glucuronidation of 17α-ethinylestradiol, a UGT1A1 substrate ([1]; both male and female rats): significantly increase | increase in glucuronidation of 17α-ethinylestradiol ([1]; both male and female rats treated with 50 mg/kg/day): 2 fold | 1-naphthol glucuronidation ([2]; Females, T1: ritonavir 15 mg/kg oral daily 14 days, 50 μM substrate): 7.3 ± 1.2 nmol/mg/min | 1-naphthol glucuronidation ([2]; Females, T1: ritonavir 15 mg/kg oral daily 14 days, 1000 μM substrate): 33.7 ± 5.2 nmol/mg/min | 1-naphthol glucuronidation ([2]; Females, T2: ritonavir 50 mg/kg oral daily 14 days, 50 μM substrate): 10.0 ± 2.7 nmol/mg/min | 1-naphthol glucuronidation ([2]; Females, T2: ritonavir 50 mg/kg oral daily 14 days, 1000 μM substrate): 37.7 ± 4.9 nmol/mg/min | 1-naphthol glucuronidation ([2]; Males, T1: ritonavir 15 mg/kg oral daily 14 days, 50 μM substrate): 9.5 ± 1.5 nmol/mg/min | 1-naphthol glucuronidation ([2]; Males, T1: ritonavir 15 mg/kg oral daily 14 days, 1000 μM substrate): 23.0 ± 2.5 nmol/mg/min | 1-naphthol glucuronidation ([2]; Males, T2: ritonavir 50 mg/kg oral daily 14 days, 50 μM substrate): 8.3 ± 1.4 nmol/mg/min | 1-naphthol glucuronidation ([2]; Males, T2: ritonavir 50 mg/kg oral daily 14 days, 1000 μM substrate): 22.8 ± 4.3 nmol/mg/min | Fold change [5, 12]: 2.43 fold | Fold change [5, 13]: 3.96 fold | Fold change [5, 14]: 5.06 fold | UG1A levels for all probe sets [6]: consistent increase

COC(=O)N[C@H](C(=O)N[C@@H](Cc1ccccc1)[C@@H](O)CN(Cc1ccc(-c2ccccn2)cc1)NC(=O)[C@@H](NC(=O)OC)C(C)(C)C)C(C)(C)C [atazanavir, Atazanavir]
inhibition of bilirubin conjugation [7]: inhibits bilirubin conjugation in the micromolar range | inhibition of bilirubin conjugation [8]: inhibits bilirubin conjugation in the micromolar range | subjects exhibiting unconjugated hyperbilirubinemia [9]: 57%

CC(C)(C)NC(=O)[C@@H]1CN(Cc2cccnc2)CCN1C[C@@H](O)C[C@@H](Cc1ccccc1)C(=O)N[C@H]1c2ccccc2C[C@H]1O [indinavir, Indinavir]
inhibition of bilirubin-conjugating activity [10]: direct inhibition of bilirubin-conjugating activity

C#C[C@]1(O)CC[C@H]2[C@@H]3CCc4cc(O)ccc4[C@H]3CC[C@@]21C [Ethinylestradiol, 17α-ethinylestradiol]
Tmax [11, 15]: 4.0 ± 1.7 h | β (terminal elimination rate constant) [11, 15]: 0.0407 ± 0.0082 h⁻¹ | time at which serum ethinylestradiol concentrations peaked post-dose ([11]; single dose of oral contraceptive): approximately 4 h
